# Results from publication PMC4109836, “Analysis of the co-operative interaction between the allosterically regulated proteins GK and GKRP using tryptophan fluorescence” (Biochemical Journal, 2014).
# Tests used:
# [1] = test system: subjects with T2D; set-up: method as in PMID 21994424; conditions: cited from earlier work
# [2] = Structural stability from urea denaturation curves (TF); assay type: physicochemical, human; conditions: buffer pH 7.2, 20°C; ±0.05
molecule,measurement,setting,value
CCS(=O)(=O)c1ccc(Oc2cc(O[C@@H](C)CO)cc(C(=O)Nc3ccn(C)n3)c2)cn1 [MK0941],"clinical effect, higher doses",[1]; higher doses of the drug,fast-onset transient effects associated with an increase in blood lipids and cardiovascular side effects
same,"clinical effect, low dose",[1]; low dose of the drug,slow-onset long-lasting beneficial effect
"GKRP-P446L: recombinant human GKRP variant P446L (protein, left off: FLAG, end not stated, state not stated) MPGTKRFQHVIETPEPGKWELSGYEAAVPITEKSNPLTQDLDKADAENIVRLLGQCDAEIFQEEGQALSTYQRLYSESILTTMVQVAGKVQEVLKEPDGGLVVLSGGGTSGRMAFLMSVSFNQLMKGLGQKPLYTYLIAGGDRSVVASREGTEDSALHGIEELKKVAAGKKRVIVIGISVGLSAPFVAGQMDCCMNNTAVFLPVLVGFNPVSMARNDPIEDWSSTFRQVAERMQKMQEKQKAFVLNPAIGPEGLSGSSRMKGGSATKILLETLLLAAHKTVDQGIAASQRCLLEILRTFERAHQVTYSQSPKIATLMKSVSTSLEKKGHVYLVGWQTLGIIAIMDGVECIHTFGADFRDVRGFLIGDHSDMFNQKAELTNQGPQFTFSQEDFLTSILPSLTEIDTVVFIFTLDDNLTEVQTIVEQVKEKTNHIQALAHSTVGQTLLIPLKKLFPSIISITWPLLFFEYEGNFIQKFQRELSTKWVLNTVSTGAHVLLGKILQNHMLDLRISNSKLFWRALAMLQRFSGQSKARCIESLLRAIHFPQPLSDDIRAAPISCHVQVAHEKEQVIPIALLSLLFRCSITEAQAHLAAAPSVCEAVRSALAGPGQKRTADPLEILEPDVQ",ΔG(H2O) from urea denaturation curves,[2],6.49 kJ/mol
